The text below walks through data of ChEMBL document CHEMBL2203179, “New diarylureas and diarylamides possessing acet(benz)amidophenyl scaffold: design, synthesis, and antiproliferative activity against melanoma cell line” (Bioorg Med Chem Lett, 2012).

By IC50 is commonly meant the concentration needed to halve the response being measured. Low values mean greater potency in that assay, high ones weaker potency in that assay.

A short description of experiment [1]: Antiproliferative activity against human A375P cells. It counts as functional, cell-based.
Experiment [2] in a line: Ratio of IC50 for vemurafenib IC50 to compound IC50 for human A375P cells. It counts as functional.

As for `Cc1ccc(NC(=O)Nc2ccc(C)c(NC(=O)c3ccccc3)c2)cc1C`, in experiment [1], the IC50 was over 30 µM.
The compound `Cc1ccc(NC(=O)Nc2ccccc2Cl)cc1NC(=O)c1ccccc1` displayed an IC50 in experiment [1] of over 30 µM.
For the compound `Cc1ccc(NC(=O)Nc2ccc(Cl)c(Cl)c2)cc1NC(=O)c1ccccc1`, the midpoint of inhibition in experiment [1], the IC50, lay at 5.8 µM. This counts as single-digit micromolar.
The same measure, in the same setting: for `Cc1ccc(NC(=O)Nc2cc(Cl)cc(Cl)c2)cc1NC(=O)c1ccccc1` the value was 0.259 µM.
Turning to `Cc1ccc(NC(=O)Nc2cc(C(F)(F)F)cc(C(F)(F)F)c2)cc1NC(=O)c1ccccc1`, the “Ratio IC50” value in experiment [2] was determined as 1.57. The compound further gave an IC50 in experiment [1] of 0.162 µM.
For `Cc1ccc(NC(=O)Nc2ccc(Cl)c(C(F)(F)F)c2)cc1NC(=O)c1ccccc1`, half-maximal inhibition in experiment [1] (IC50) required 1.3 µM.
Same read-out and setting: next, `Cc1ccc(NC(=O)Nc2cc(F)cc(C(F)(F)F)c2)cc1NC(=O)c1ccccc1`: over 30 µM; `CC(=O)c1cccc(NC(=O)Nc2ccc(C)c(NC(=O)c3ccccc3)c2)c1`: 9.8 µM.
In experiment [1], `Cc1ccc(NC(=O)Nc2cccc(Oc3ccccc3)c2)cc1NC(=O)c1ccccc1` gave an IC50 of over 30 µM.
The same measure, in the same setting: for `Cc1ccc(NC(=O)Nc2ccc3c(c2)OCO3)cc1NC(=O)c1ccccc1` the value was over 30 µM; for `Cc1ccc(NC(=O)Nc2ccc3c(c2)OCCO3)cc1NC(=O)c1ccccc1`, over 30 µM.
In experiment [1], `Cc1ccc(NC(=O)Nc2ccc(Cl)nc2)cc1NC(=O)c1ccccc1` registered an IC50 of 1.6 µM. This lies in the single-digit micromolar range.
Same read-out and setting: next, `CC(=O)Nc1cc(NC(=O)c2cc(C(F)(F)F)cc(C(F)(F)F)c2)ccc1C`: over 30 µM; `CC(=O)Nc1cc(NC(=O)c2ccc(Cl)c(C(F)(F)F)c2)ccc1C`: over 30 µM; `CC(=O)Nc1cc(NC(=O)c2ccc3c(c2)OCCO3)ccc1C`: 12.9 µM.
As to `CC(=O)Nc1cc(NC(=O)c2cc(C)on2)ccc1C`, the IC50 in experiment [1] is over 30 µM.
With `CC(=O)Nc1cc(NC(=O)c2cc(=O)c3ccccc3o2)ccc1C`, in experiment [1], the IC50 was over 30 µM.
In experiment [1], `Cc1ccc(NC(=O)c2cc(C(F)(F)F)cc(C(F)(F)F)c2)cc1NC(=O)c1ccccc1` came in with an IC50 of over 30 µM.
For `Cc1ccc(NC(=O)c2ccc(Cl)c(C(F)(F)F)c2)cc1NC(=O)c1ccccc1`, in experiment [1], the half-maximal inhibitory concentration (IC50) was over 30 µM.
The compound `Cc1ccc(NC(=O)c2ccc3c(c2)OCCO3)cc1NC(=O)c1ccccc1` returned an IC50 in experiment [1] of over 30 µM.
With `Cc1cc(C(=O)Nc2ccc(C)c(NC(=O)c3ccccc3)c2)no1`, in experiment [1], the IC50 was over 30 µM.
As for `Cc1ccc(NC(=O)c2cc(=O)c3ccccc3o2)cc1NC(=O)c1ccccc1`, the IC50 in experiment [1] was over 30 µM.
On the same count and under the same terms, next, `CC(=O)Nc1cc(NC(=O)Nc2ccccc2Cl)ccc1C`: over 30 µM; `CC(=O)Nc1cc(NC(=O)Nc2ccc(Cl)c(Cl)c2)ccc1C`: 2.1 µM.
Still for that read-out and setting: for `CC(=O)Nc1cc(NC(=O)Nc2cc(Cl)cc(Cl)c2)ccc1C` the value was 0.561 µM.
In experiment [1], `CC(=O)Nc1cc(NC(=O)Nc2cc(C(F)(F)F)cc(C(F)(F)F)c2)ccc1C` had an IC50 of 0.685 µM.
Consider `CC(=O)Nc1cc(NC(=O)Nc2ccc(Cl)c(C(F)(F)F)c2)ccc1C`, for which the concentration for half-maximal inhibition (IC50) in experiment [1] came to 1.1 µM.
Compound `CC(=O)Nc1cc(NC(=O)Nc2cc(F)cc(C(F)(F)F)c2)ccc1C` yielded a half-inhibitory concentration (IC50) in experiment [1] of over 30 µM.
Consider `CC(=O)Nc1cc(NC(=O)Nc2ccc(C)c(C)c2)ccc1C`, for which, in experiment [1], the IC50 is over 30 µM.
In experiment [1], `CC(=O)Nc1cc(NC(=O)Nc2cccc(C(C)=O)c2)ccc1C` yielded an IC50 of 22.1 µM.
In experiment [1], `CC(=O)Nc1cc(NC(=O)Nc2cccc(Oc3ccccc3)c2)ccc1C` yielded an IC50 of over 30 µM.
Consider `CC(=O)Nc1cc(NC(=O)Nc2ccc3c(c2)OCO3)ccc1C`, for which the IC50 in experiment [1] is over 30 µM.
`CC(=O)Nc1cc(NC(=O)Nc2ccc3c(c2)OCCO3)ccc1C` yielded a half-maximal inhibitory concentration (IC50) in experiment [1] of over 30 µM.
For the compound `CC(=O)Nc1cc(NC(=O)Nc2ccc(Cl)nc2)ccc1C`, the IC50 in experiment [1] is 1.1 µM.
Still for that read-out and setting: for `CNC(=O)c1cc(Oc2ccc(NC(=O)Nc3ccc(Cl)c(C(F)(F)F)c3)cc2)ccn1` [SORAFENIB] the value was 2.7 µM.
